Results as given in US10351561B2, “Pyrazolo[3,4-b]pyridines and imidazo[1,5-b]pyridazines as PDE1 inhibitors” (H. Lundbeck A/S, priority 2016, dated 2019).
Like-named read-outs stand apart in the source and are kept apart here.

How the values were obtained:
Format in all cases: biochemical
Conditions in all cases: 15 nM tritium labelled cAMP, 1 hr at room temperature, SPA beads
PDE1B = PDE1B (Homo sapiens, UniProt Q01064); assay: PDE1 inhibition assay (PDE1B), SPA with tritium labelled cAMP
Experimental: Reactions were initiated by addition of the cyclic nucleotide substrate, and reactions were allowed to proceed for 1 hr at room temperature before being terminated through mixing with 20 μL (0.2 mg) yttrium silicate SPA beads (PerkinElmer).

PDE1C = PDE1C (Homo sapiens, UniProt Q14123); assay: PDE1 inhibition assay (PDE1C), SPA with tritium labelled cAMP
PDE1C, sequence (Q14123 whole entry): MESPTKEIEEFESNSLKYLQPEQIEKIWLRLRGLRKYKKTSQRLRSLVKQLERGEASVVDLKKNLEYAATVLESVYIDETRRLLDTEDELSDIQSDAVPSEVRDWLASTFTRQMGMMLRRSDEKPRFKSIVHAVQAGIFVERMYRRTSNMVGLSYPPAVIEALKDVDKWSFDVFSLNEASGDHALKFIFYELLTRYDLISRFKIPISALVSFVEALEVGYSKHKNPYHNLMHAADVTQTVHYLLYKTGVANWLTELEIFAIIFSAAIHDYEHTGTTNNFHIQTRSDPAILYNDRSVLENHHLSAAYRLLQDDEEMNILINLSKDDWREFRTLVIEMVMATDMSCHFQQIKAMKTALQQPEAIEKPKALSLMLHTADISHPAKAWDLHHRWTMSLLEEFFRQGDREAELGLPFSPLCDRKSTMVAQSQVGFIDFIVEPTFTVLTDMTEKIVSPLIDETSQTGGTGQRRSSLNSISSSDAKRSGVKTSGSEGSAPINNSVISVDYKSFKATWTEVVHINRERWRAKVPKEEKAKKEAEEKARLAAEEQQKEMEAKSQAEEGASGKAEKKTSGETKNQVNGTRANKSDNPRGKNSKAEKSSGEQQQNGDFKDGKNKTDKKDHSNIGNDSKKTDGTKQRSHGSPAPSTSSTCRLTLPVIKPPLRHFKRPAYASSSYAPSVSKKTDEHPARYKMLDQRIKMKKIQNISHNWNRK
Experimental: (§1) PDE1A, PDE1B and PDE1C assays were performed as follows: the assays were performed in 60 μL samples containing a fixed amount of the PDE1 enzyme (sufficient to convert 20-25% of the cyclic nucleotide substrate), a buffer (50 mM HEPES (4-(2-hydroxyethyl)-1-piperazineethanesulfonic acid) pH 7.6; 10 mM MgCl2; 0.02% Tween20), 0.1 mg/ml BSA (bovine serum albumin), 15 nM tritium labelled cAMP and varying amounts of inhibitors. Reactions were initiated by addition of the cyclic nucleotide substrate, and reactions were allowed to proceed for 1 hr at room temperature before being terminated through mixing with 20 μL (0.2 mg) yttrium silicate SPA beads (PerkinElmer). The beads were allowed to settle for 1 hr in the dark before the plates were counted in a Wallac 1450 Microbeta counter. The measured signals were converted to activity relative to an uninhibited control (100%) and IC50 values were calculated using XIFit (model 205, IDBS).

PDE1A = PDE1A (Homo sapiens, UniProt P54750); assay: PDE1 inhibition assay (PDE1A), SPA with tritium labelled cAMP
PDE1A, sequence (P54750 whole entry): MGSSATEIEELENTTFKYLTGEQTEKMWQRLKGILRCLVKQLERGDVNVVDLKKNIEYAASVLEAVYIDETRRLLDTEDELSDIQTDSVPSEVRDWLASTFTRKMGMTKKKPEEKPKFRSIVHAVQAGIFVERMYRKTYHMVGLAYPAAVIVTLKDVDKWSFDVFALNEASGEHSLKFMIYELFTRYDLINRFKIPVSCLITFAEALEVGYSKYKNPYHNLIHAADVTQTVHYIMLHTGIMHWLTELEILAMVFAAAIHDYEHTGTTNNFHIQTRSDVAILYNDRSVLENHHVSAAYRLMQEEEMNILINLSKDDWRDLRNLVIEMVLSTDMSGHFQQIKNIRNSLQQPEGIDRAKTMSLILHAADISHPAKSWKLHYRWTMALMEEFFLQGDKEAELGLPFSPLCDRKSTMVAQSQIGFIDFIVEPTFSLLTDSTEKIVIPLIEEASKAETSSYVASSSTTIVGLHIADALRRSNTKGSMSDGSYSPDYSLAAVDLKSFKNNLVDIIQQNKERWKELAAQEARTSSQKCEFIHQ
Experimental: as §1

PDE1B, sequence (Q01064 whole entry): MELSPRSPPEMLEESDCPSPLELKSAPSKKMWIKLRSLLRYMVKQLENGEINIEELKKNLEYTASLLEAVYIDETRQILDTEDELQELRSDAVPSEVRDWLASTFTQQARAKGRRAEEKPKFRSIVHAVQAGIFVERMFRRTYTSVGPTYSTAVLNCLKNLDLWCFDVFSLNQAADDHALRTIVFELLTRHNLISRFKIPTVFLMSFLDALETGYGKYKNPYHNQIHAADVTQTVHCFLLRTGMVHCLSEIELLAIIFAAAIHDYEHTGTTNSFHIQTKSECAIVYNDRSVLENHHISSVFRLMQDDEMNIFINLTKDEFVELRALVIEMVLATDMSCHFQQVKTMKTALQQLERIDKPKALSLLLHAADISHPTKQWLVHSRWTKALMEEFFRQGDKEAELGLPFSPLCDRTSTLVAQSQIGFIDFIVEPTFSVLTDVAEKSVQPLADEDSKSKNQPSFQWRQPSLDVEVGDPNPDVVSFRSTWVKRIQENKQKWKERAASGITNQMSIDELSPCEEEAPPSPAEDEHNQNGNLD

SMILES	IC50 (PDE1B; read-out: PDE1B, IC50)	IC50 (PDE1C)	IC50 (PDE1A)	IC50 (PDE1B; PDE1B, IC50 (nM))
CCOc1ncccc1-c1cc(NCc2nnn(C)n2)c2c(C(C)C)nn(C)c2n1 [Example 20, 6-(2-ethoxy-3-pyridyl)-3-isopropyl-1-methyl-N-[(2-methyltetrazol-5-yl)methyl]pyrazolo[3,4-b]pyridin-4-amine]	2.8 nM	30 nM	16 nM	
CCOc1ncccc1-c1cc(NCc2ccn(C)n2)c2c(C(C)C)nn(C)c2n1 [Example 21, 6-(2-ethoxy-3-pyridyl)-3-isopropyl-1-methyl-N-[(1-methylpyrazol-3-yl)methyl]pyrazolo[3,4-b]pyridin-4-amine]	5.3 nM	36 nM	30 nM	
CCOc1ncccc1-c1cc(NCc2cnn(C)c2)c2c(C(C)C)nc(C)n2n1 [Example 22, 2-(2-ethoxy-3-pyridyl)-5-isopropyl-7-methyl-N-[(1-methylpyrazol-4-yl)methyl]imidazo[1,5-b]pyridazin-4-amine]	1.8 nM	16 nM	17 nM	
CCOc1ncccc1-c1cc(NCc2nnn(C)n2)c2c(C(C)C)nc(C)n2n1 [Example 23, 2-(2-ethoxy-3-pyridyl)-5-isopropyl-7-methyl-N-[(2-methyltetrazol-5-yl)methyl]imidazo[1,5-b]pyridazin-4-amine]	0.77 nM	4.7 nM	5.4 nM	
CCOc1ncccc1-c1cc(NCc2ccn(C)n2)c2c(C(C)C)nc(C)n2n1 [Example 24, 2-(2-ethoxy-3-pyridyl)-5-isopropyl-7-methyl-N-[(1-methylpyrazol-3-yl)methyl]imidazo[1,5-b]pyridazin-4-amine]	1.8 nM	13 nM	14 nM	
CCOc1ncccc1-c1cc(NCc2cncc(OC)c2)c2c(C(C)C)nn(C)c2n1 [Example 25, 6-(2-ethoxy-3-pyridyl)-3-isopropyl-N-[(5-methoxy-3-pyridyl)methyl]-1-methyl-pyrazolo[3,4-b]pyridin-4-amine]	6.3 nM	18 nM	16 nM	
CCOc1ncccc1-c1cc(NCc2cnn(C)n2)c2c(C(C)C)nn(C)c2n1 [Example 26, 6-(2-ethoxypyridin-3-yl)-3-isopropyl-1-methyl-N-((2-methyl-2H-1,2,3-triazol-4-yl)methyl)-1H-pyrazolo[3,4-b]pyridin-4-amine]		75 nM	110 nM	18 nM
CCOc1ncccc1-c1cc(NCc2cnc(C)o2)c2c(C(C)C)nn(C)c2n1 [Example 27, 6-(2-ethoxy-3-pyridyl)-3-isopropyl-1-methyl-N-[(2-methyloxazol-5-yl)methyl]pyrazolo[3,4-b]pyridin-4-amine]	10 nM	60 nM	53 nM	
CCOc1ncccc1-c1cc(NCc2cnc(C)s2)c2c(C(C)C)nn(C)c2n1 [Example 28, 6-(2-ethoxy-3-pyridyl)-3-isopropyl-1-methyl-N-[(2-methylthiazol-5-yl)methyl]pyrazolo[3,4-b]pyridin-4-amine]	4.4 nM	13 nM	14 nM	
CCOc1ncccc1-c1cc(NCc2cn(C)nn2)c2c(C(C)C)nn(C)c2n1 [Example 29, 6-(2-ethoxy-3-pyridyl)-3-isopropyl-1-methyl-N-[(1-methyltriazol-4-yl)methyl]pyrazolo[3,4-b]pyridin-4-amine]	1.6 nM	33 nM	18 nM	
CCOc1ncccc1-c1cc(NCc2cn[nH]c2)c2c(C(C)C)nn(C)c2n1 [Example 30, 6-(2-ethoxy-3-pyridyl)-3-isopropyl-1-methyl-N-(1H-pyrazol-4-ylmethyl)pyrazolo[3,4-b]pyridin-4-amine]	16 nM	76 nM	85 nM	
CCOc1ncccc1-c1cc(NCc2nnc(C)o2)c2c(C(C)C)nn(C)c2n1 [Example 31, 6-(2-ethoxy-3-pyridyl)-3-isopropyl-1-methyl-N-[(5-methyl-1,3,4-oxadiazol-2-yl)methyl]pyrazolo[3,4-b]pyridin-4-amine]	16 nM	110 nM	110 nM	
CCOc1ncccc1-c1cc(NCc2nc(C)no2)c2c(C(C)C)nn(C)c2n1 [Example 32, 6-(2-ethoxy-3-pyridyl)-3-isopropyl-1-methyl-N-[(3-methyl-1,2,4-oxadiazol-5-yl)methyl]pyrazolo[3,4-b]pyridin-4-amine]	7.8 nM	63 nM	82 nM	
CCCOc1ncccc1-c1cc(NCc2ncn(C)n2)c2c(C(C)C)nn(C)c2n1 [Example 33, 3-isopropyl-1-methyl-N-[(1-methyl-1,2,4-triazol-3-yl)methyl]-6-(2-propoxy-3-pyridyl)pyrazolo[3,4-b]pyridin-4-amine]	0.42 nM	5.2 nM	3.4 nM	
CCCOc1ncccc1-c1cc(NCc2cn(C)cn2)c2c(C(C)C)nn(C)c2n1 [Example 34, 3-isopropyl-1-methyl-N-[(1-methylimidazol-4-yl)methyl]-6-(2-propoxy-3-pyridyl)pyrazolo[3,4-b]pyridin-4-amine]	0.29 nM	3.8 nM	2.7 nM	
CCOc1ncccc1-c1cc(NCc2nccc(C)n2)c2c(C(C)C)nn(C)c2n1 [Example 35, 6-(2-ethoxy-3-pyridyl)-3-isopropyl-1-methyl-N-[(4-methylpyrimidin-2-yl)methyl]pyrazolo[3,4-b]pyridin-4-amine]	25 nM	180 nM	200 nM	
CCOc1ncccc1-c1cc(NCc2ncccn2)c2c(C(C)C)nn(C)c2n1 [Example 36, 6-(2-ethoxy-3-pyridyl)-3-isopropyl-1-methyl-N-(pyrimidin-2-ylmethyl)pyrazolo[3,4-b]pyridin-4-amine]	4 nM	77 nM	50 nM	
CCOc1ncccc1-c1cc(NCc2ccc(OC)nc2)c2c(C(C)C)nn(C)c2n1 [Example 37, 6-(2-ethoxy-3-pyridyl)-3-isopropyl-N-[(6-methoxy-3-pyridyl)methyl]-1-methyl-pyrazolo[3,4-b]pyridin-4-amine]	27 nM	46 nM	120 nM	
CCOc1ncccc1-c1cc(NCc2cccnc2C(F)(F)F)c2c(C(C)C)nn(C)c2n1 [Example 38, 6-(2-ethoxy-3-pyridyl)-3-isopropyl-1-methyl-N-[[2-(trifluoromethyl)-3-pyridyl]methyl]pyrazolo[3,4-b]pyridin-4-amine]	33 nM	180 nM	180 nM	
CCOc1ncccc1-c1cc(NCc2cc(OC)ccn2)c2c(C(C)C)nn(C)c2n1 [Example 39, 6-(2-ethoxy-3-pyridyl)-3-isopropyl-N-[(4-methoxy-2-pyridyl)methyl]-1-methyl-pyrazolo[3,4-b]pyridin-4-amine]	3.4 nM	25 nM	27 nM	
CCOc1ncccc1-c1cc(NCc2ccccn2)c2c(C(C)C)nn(C)c2n1 [Example 40, 6-(2-ethoxy-3-pyridyl)-3-isopropyl-1-methyl-N-(2-pyridylmethyl)pyrazolo[3,4-b]pyridin-4-amine]	8.9 nM	82 nM	68 nM	
CCOc1ncccc1-c1cc(NCc2cccc(OC)n2)c2c(C(C)C)nn(C)c2n1 [Example 41, 6-(2-ethoxy-3-pyridyl)-3-isopropyl-N-[(6-methoxy-2-pyridyl)methyl]-1-methyl-pyrazolo[3,4-b]pyridin-4-amine]	110 nM	560 nM	440 nM	
CCOc1ncccc1-c1cc(NCc2cccc(C)n2)c2c(C(C)C)nn(C)c2n1 [Example 42, 6-(2-ethoxy-3-pyridyl)-3-isopropyl-1-methyl-N-[(6-methyl-2-pyridyl)methyl]pyrazolo[3,4-b]pyridin-4-amine]	20 nM	200 nM	180 nM	
CCOc1ncccc1-c1cc(NCc2ncon2)c2c(C(C)C)nc(C)n2n1 [Example 43, 2-(2-ethoxy-3-pyridyl)-5-isopropyl-7-methyl-N-(1,2,4-oxadiazol-3-ylmethyl)imidazo[1,5-b]pyridazin-4-amine]	5.8 nM	34 nM	40 nM	
CCOc1ncccc1-c1cc(NCc2cnn(C)n2)c2c(C(C)C)nc(C)n2n1 [Example 44, 2-(2-ethoxy-3-pyridyl)-5-isopropyl-7-methyl-N-[(2-methyltriazol-4-yl)methyl]imidazo[1,5-b]pyridazin-4-amine]	5.1 nM	24 nM	38 nM	
CCOc1ncccc1-c1cc(NCc2nnc(C)o2)c2c(C(C)C)nc(C)n2n1 [Example 45, 2-(2-ethoxy-3-pyridyl)-5-isopropyl-7-methyl-N-[(5-methyl-1,3,4-oxadiazol-2-yl)methyl]imidazo[1,5-b]pyridazin-4-amine]	7.8 nM	37 nM	42 nM	
CCOc1ncccc1-c1cc(NCc2nc(C)no2)c2c(C(C)C)nc(C)n2n1 [Example 46, 2-(2-ethoxy-3-pyridyl)-5-isopropyl-7-methyl-N-[(3-methyl-1,2,4-oxadiazol-5-yl)methyl]imidazo[1,5-b]pyridazin-4-amine]	4.1 nM	14 nM	21 nM	
